Results on 1 molecule are retold here after paper PMC10455239, “Antimicrobial, Cytotoxic, and α-Glucosidase Inhibitory Activities of Ethanol Extract and Chemical Constituents Isolated from Homotrigona apicalis Propolis—In Vitro and Molecular Docking Studies” (Life, 2023).

Each structure is given as a SMILES string. Converted amounts (≈) assume the structure as drawn. Read-outs that look alike come from different tables or passages of the source.

One assay concerns Bacillus cereus. The assay can be described thus: Antimicrobial activity, broth microdilution. It is filed as cell-based. To be noted: Gram (+) strain, read-out: IC50 B. cereus. The procedure: (§1) The antimicrobial activity assay was performed using the broth microdilution method. Dimethyl sulfoxide (DMSO) was used for the preparation of compound solutions at concentrations of 256 μg/mL, 64 μg/mL, 16 μg/mL, 4 μg/mL, and 1 μg/mL. Three strains of Gram-positive bacteria (Staphylococcus aureus, Bacillus cereus, and Lactobacillus fermentum); three strains of Gram-negative bacteria (Salmonella enterica, Escherichia coli, and Pseudomonas aeruginosa), and fungus Candida albicans (obtained from the American Type Culture Collection (ATCC)) were used for the test. Ampicillin, Cefotaxim, and Nystatin were used as positive controls for the Gram (+) bacterial and Gram (−) bacterial strains and C. albicans, respectively. The activity of the isolated compounds was expressed as an IC50 value (half-maximal inhibitory concentration). The IC50 values were calculated using the program […].

The next assay has as its system Candida albicans. The assay can be described thus: Antimicrobial activity, broth microdilution. It is filed as cell-based. To be noted: Candida albicans; Fungus; read-out: IC50 C. albicans. The procedure:
as §1

The test system of a further assay is Escherichia coli. The assay can be described thus: Antimicrobial activity, broth microdilution. It is filed as cell-based. To be noted: Escherichia coli; Gram (−) strain; read-out: IC50 E. coli. The procedure: as §1
The subject of another assay is Lactobacillus fermentum. The assay can be described thus: Antimicrobial activity, broth microdilution. It is filed as cell-based. To be noted: Gram (+) strain; read-out: IC50 L. fermentum. The procedure:
as §1

A further assay deals with Pseudomonas aeruginosa. The assay can be described thus: Antimicrobial activity, broth microdilution. It counts as cell-based. To be noted: Pseudomonas aeruginosa; Gram (−) strain; read-out: IC50 P. aeruginosa. The procedure: as §1
For orientation: Dilution methods test growth across graded concentrations, often in twofold steps.

A further assay deals with Salmonella enterica. The assay can be described thus: Antimicrobial activity, broth microdilution. To be noted: Salmonella enterica; Gram (−) strain; read-out: IC50 S. enterica. It is filed as cell-based. The procedure: as §1
For a further assay, the system named is Staphylococcus aureus. The assay can be described thus: Antimicrobial activity, broth microdilution. It counts as cell-based. To be noted: Gram (+) strain, read-out: IC50 S. aureus. The procedure: as §1
In assay [1] the test system is A-549 (human lung adenocarcinoma). The assay can be described thus: Cytotoxicity assay (MTT). To be noted: A549, MTT, 48 h incubation, read-out: IC50 A-549. It counts as cell-based. The procedure: (§2) The cytotoxic assays were evaluated in triplicate against three cancer cell lines, namely KB (epidermal carcinoma), A-549 (human lung adenocarcinoma), and HepG-2 (human hepatoma) (ATCC), with a modification of the previously published method. The cells were cultured in Dulbecco’s D-MEM medium (Gibco, Life Technologies Corporation, Grand Island, NY, USA), supplemented with 10% fetal calf serum (Sigma-Aldrich, St. Loius, MO, USA), L-glutamine (2 mM) (Sigma-Aldrich, St. Loius, MO, USA), penicillin G (100 UI/mL), and streptomycin (100 μg/mL) (Sigma-Aldrich, St. Loius, MO, USA). The compound solutions were prepared in DMSO, and the cytotoxic assays were conducted in 96-well microtiter plates against the cancer cells (3 × 10^5 cells/mL concentration). After 48 h incubation at 37 °C in an air/CO2 (95:5) atmosphere, with or without isolated compounds, MTT reagent was added to each well (0.5 mg/mL). The cell growth was assessed by measuring the colorimetric of formazan at 570 nm using a microplate reader. […] Ellipticine was used as a positive reference.

In another assay the test system is HepG-2 (human hepatoma). The assay can be described thus: Cytotoxicity assay (MTT). It counts as cell-based. To be noted: HepG2, MTT, 48 h incubation, read-out: IC50 Hep-G2. The procedure: as §2
The test system of a further assay is KB (epidermal carcinoma). The assay can be described thus: Cytotoxicity assay (MTT). It is filed as cell-based. To be noted: MTT, 48 h incubation; read-out: IC50 KB. The procedure: as §2
The target in assay [2] is T1, α-glucosidase (Saccharomyces cerevisiae, UniProt P53341).
T1 construct: purchased Sigma-Aldrich G0660
T1 sequence (P53341 whole entry): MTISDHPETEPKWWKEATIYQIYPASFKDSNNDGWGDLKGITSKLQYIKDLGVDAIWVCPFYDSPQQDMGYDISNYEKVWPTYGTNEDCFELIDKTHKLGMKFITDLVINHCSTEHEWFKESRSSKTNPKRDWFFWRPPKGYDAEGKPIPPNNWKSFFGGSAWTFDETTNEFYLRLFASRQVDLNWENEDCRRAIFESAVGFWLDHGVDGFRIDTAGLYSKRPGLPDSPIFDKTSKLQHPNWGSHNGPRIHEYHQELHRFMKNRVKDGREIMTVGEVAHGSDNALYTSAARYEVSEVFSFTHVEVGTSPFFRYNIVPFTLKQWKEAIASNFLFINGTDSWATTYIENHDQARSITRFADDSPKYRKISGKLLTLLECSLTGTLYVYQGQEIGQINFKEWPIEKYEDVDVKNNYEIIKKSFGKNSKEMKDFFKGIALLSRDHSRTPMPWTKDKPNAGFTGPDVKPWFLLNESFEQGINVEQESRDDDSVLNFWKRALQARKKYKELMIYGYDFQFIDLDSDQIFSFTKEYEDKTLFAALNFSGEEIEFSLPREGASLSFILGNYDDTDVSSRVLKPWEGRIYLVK
The assay can be described thus: biochemical. The procedure: An assay for the α-glucosidase inhibitory activity was carried out by a modification of the published method. Briefly, solutions of α-glucosidase (Saccharomyces cerevisiae, G0660, Sigma-Aldrich, St. Louis, MO, USA) and p-nitrophenyl α-D-glucopyranoside (Sigma-Aldrich, St. Louis, MO, USA) were prepared in a phosphate buffer (100 mM, pH 6.8, Sigma-Aldrich, St. Louis, MO, USA). […] The compound solution (2 μL) and 40 µL of enzyme solution (0.5 U/mL) in 120 µL phosphate buffer were mixed. After 5 min of preincubation, 20 µL of 10 mM p-nitrophenyl α-D-glucopyranoside prepared in phosphate buffer was added, and the reaction mixture was incubated for 30 min at 37 °C. The reaction was quenched by the addition of 80 µL of 0.2 M Na2CO3. The absorbance of the released p-nitrophenol was measured at 410 nm using a Biotek reader. The % inhibition was calculated using the following equation:Inhibition (%) = [1 − (Asample/Acontrol)] ∗ 100
The IC50 values of the isolated compounds were calculated using the program Table Curve.

The test system of assay [3] is KB, HepG-2, and A-549 cancer cell lines. The assay can be described thus: Cytotoxicity assay (MTT), range over the three cell lines. It counts as cell-based. To be noted: range over three cell lines and both xanthones. The procedure:
as §2

Assay [4] deals with Gram (+) bacterial strains. The assay can be described thus: Antibacterial activity, range over strains. It counts as cell-based. To be noted: range over strains and compounds. The procedure:
as §1

The target in assay [5] is α-glucosidase. To be noted: cited from earlier work.

On to `COc1c(O)cc2oc3cc(O)c(CC=C(C)C)c(O)c3c(=O)c2c1CC=C(C)C` [Compound 9, α-mangostin], for which the half-inhibitory concentration (IC50) with Bacillus cereus was 0.57 ± 0.07 mg/L (≈ 1.39 µM); in the assay on Candida albicans, 0.56 ± 0.06 mg/L (≈ 1.36 µM); with Escherichia coli, 7.89 ± 0.34 mg/L (≈ 19.2 µM); with Lactobacillus fermentum, 0.56 ± 0.09 mg/L (≈ 1.36 µM); with Pseudomonas aeruginosa, 1.22 ± 0.09 mg/L (≈ 2.97 µM); in the assay on Salmonella enterica, 16.3 ± 0.78 mg/L (≈ 39.8 µM). In addition, the IC50 is 0.54 ± 0.07 mg/L (≈ 1.32 µM) in the assay on Staphylococcus aureus; 7.55 ± 0.25 mg/L (≈ 18.4 µM) in assay [1]; 12.9 ± 0.68 mg/L (≈ 31.4 µM) in the assay on HepG-2 (human hepatoma); 9.28 ± 0.58 mg/L (≈ 22.6 µM) in the assay on KB (epidermal carcinoma); 4.63 µM at α-glucosidase [2] (IC50 (Table S1), Table S1, α-glucosidase); 4.63 µM against α-glucosidase [2] (IC50 α-Glucosidase Inhibitory Activity, p-nitrophenyl α-D-glucopyranoside, pH 6.8, 37 °C). Moreover, the IC50 at α-glucosidase [2] (IC50 α-glucosidase, equivalent in μM, converted from μg/mL) was 4.63 ± 0.24 µM; in [3] it was 7.55 to 29.3 mg/L (≈ 18.4 to 71.3 µM); in assay [4], 0.56 to 17.3 mg/L (≈ 1.36 to 42.2 µM); at α-glucosidase [5] (ref 59 (Nam K. Nguyen et al.)), 11.4 ± 2.3 µM; at α-glucosidase [5] (ref 60 (H. W. Ryu et al.)) it was 5 ± 0.1 µM.

For orientation: IC50 means the concentration at which inhibition is half-maximal.
